{
  "source": "ChEMBL document CHEMBL5500375",
  "about": "“Design, synthesis, and evaluation of N1,N3-dialkyldioxonaphthoimidazoliums as antibacterial agents against methicillin-resistant Staphylococcus aureus” (Eur J Med Chem, 2024)",
  "key": {"[1]": {"test_system": "Staphylococcus aureus", "assay": "Antibacterial agents against methicillin-sensitive Staphylococcus aureus Newman assessed as absence of growth measured after 18 hrs by micro-dilution method", "format": "functional"}, "[2]": {"test_system": "Staphylococcus aureus", "assay": "Antibacterial agents against c5-resistant mutant of methicillin-resistant Staphylococcus aureus SA3 m3 assessed as absence of growth measured after 18 hrs by micro-dilution method", "format": "functional"}, "[3]": {"assay": "Metabolic stability in human liver microsomes assessed as half life at 2 uM preincubated for 5 mins followed by NADPH addition and measured for 35 mins by LC/MS analysis", "format": "ADME, Microsome", "settings": "preincubation 5 min"}, "[4]": {"test_system": "Staphylococcus aureus", "assay": "Antibacterial agents against methicillin-sensitive Staphylococcus aureus Newman assessed as absence of growth at 0.19 ug/ml measured after overnight incubation under anaerobic condition in presence of N-acetylcysteine by micro-dilution method", "format": "functional, organism-based", "settings": "dose 0.19 µg/ml"}, "[5]": {"test_system": "Staphylococcus aureus", "assay": "Antibacterial agents against methicillin-resistant Staphylococcus aureus SA3 assessed as absence of growth at 0.19 ug/ml measured after overnight incubation under anaerobic condition in presence of N-acetylcysteine by micro-dilution method", "format": "functional, organism-based", "settings": "dose 0.19 µg/ml"}, "[6]": {"test_system": "Staphylococcus aureus", "assay": "Antibacterial agents against methicillin-resistant Staphylococcus aureus USA300 assessed as absence of growth at 0.19 ug/ml measured after overnight incubation under anaerobic condition in presence of N-acetylcysteine by micro-dilution method", "format": "functional, organism-based", "settings": "dose 0.19 µg/ml"}, "[7]": {"test_system": "Staphylococcus aureus", "assay": "Antibacterial agents against c5-resistant mutant of methicillin-resistant Staphylococcus aureus SA3 m3 assessed as absence of growth at 0.19 ug/ml measured after overnight incubation under anaerobic condition in presence of N-acetylcysteine by micro-dilution method", "format": "functional, organism-based", "settings": "dose 0.19 µg/ml"}, "[8]": {"test_system": "Staphylococcus aureus", "assay": "Antibacterial agents against c5-resistant mutant of methicillin-resistant Staphylococcus aureus SA3 m5 assessed as absence of growth at 0.19 ug/ml measured after overnight incubation under anaerobic condition in presence of N-acetylcysteine by micro-dilution method", "format": "functional, organism-based", "settings": "dose 0.19 µg/ml"}, "[9]": {"test_system": "Bacillus subtilis", "assay": "Antibacterial agents against Bacillus subtilis PS380 assessed as absence of growth at 0.19 ug/ml measured after overnight incubation under anaerobic condition in presence of N-acetylcysteine by micro-dilution method", "format": "functional, organism-based", "settings": "dose 0.19 µg/ml"}, "[10]": {"test_system": "Staphylococcus aureus", "assay": "Induction of ROS generation in methicillin-resistant Staphylococcus aureus SA3 using hydroxyphenyl fluorescein at 0.09 ug/ml under anaerobic condition", "format": "functional, organism-based", "settings": "dose 0.09 µg/ml, TDE = time-dependent effect"}, "[11]": {"test_system": "Staphylococcus aureus", "assay": "Anti-biofilim activity against methicillin-resistant Staphylococcus aureus SA3 assessed decrease in biofilm growth at 1 to 10 times of MIC concentration measured after 12 to 24 hrs incubation", "format": "functional, organism-based", "settings": "time 12-24 hrs"}, "[12]": {"test_system": "Pseudomonas aeruginosa", "assay": "Antibacterial agents against gram negative Pseudomonas aeruginosa PA14 assessed as reduction in colony forming unit at 0.78 ug/ml measured upto 10 hrs by LB agar medium method", "format": "functional, organism-based", "settings": "dose 0.78 µg/ml"}, "[13]": {"test_system": "Escherichia coli", "assay": "Antibacterial agents against gram negative Escherichia coli MG1655 assessed as reduction in colony forming unit at 0.78 ug/ml measured upto 10 hrs in presence of 0.05 to 0.2 ug/ml Polymyxin B by LB agar medium method", "format": "functional, organism-based", "settings": "dose 0.78 µg/ml"}, "[14]": {"test_system": "Pseudomonas aeruginosa", "assay": "Antibacterial agents against gram negative Pseudomonas aeruginosa PA14 assessed as reduction in colony forming unit at 0.78 ug/ml measured upto 10 hrs in presence of 0.1 ug/ml Polymyxin B by LB agar medium method", "format": "functional, organism-based", "settings": "dose 0.78 µg/ml"}, "[15]": {"test_system": "Pseudomonas aeruginosa", "assay": "Antibacterial agents against gram negative Pseudomonas aeruginosa PA14 assessed as reduction in colony forming unit at 0.78 ug/ml in presence of 0.1 to 0.2 ug/ml Polymyxin B by LB agar medium method", "format": "functional, organism-based", "settings": "dose 0.78 µg/ml, time 0-10 hrs, TDE = time-dependent effect"}, "[16]": {"test_system": "Staphylococcus aureus", "assay": "Bactericidal activity against methicillin-resistant Staphylococcus aureus SA3 assessed as as reduction in colony forming unit at 0.78 ug/ml measured upto 10 hrs by time-kill assay", "format": "functional, organism-based", "settings": "dose 0.78 µg/ml"}, "[17]": {"test_system": "Staphylococcus aureus", "assay": "Bactericidal activity against methicillin-resistant Staphylococcus aureus SA3 assessed as as reduction in colony forming unit at 0.1 to 0.4 ug/ml measured after 2 to 4 hrs by time-kill assay", "format": "functional, organism-based", "settings": "dose 0.1-0.4 µg/ml, time 2-4 hrs"}, "[18]": {"test_system": "Staphylococcus aureus", "assay": "In vivo antibacterial activity against methicillin-resistant Staphylococcus aureus SA3 infected in dorsal thorax of Drosophila melanogaster strain Oregon R assessed as survival time of Drosophila at 0.04 mg/ml measured upto 72 hrs relative to control", "format": "functional, organism-based"}, "[19]": {"test_system": "Staphylococcus aureus", "assay": "In vivo antibacterial activity against methicillin-resistant Staphylococcus aureus SA3 infected in dorsal thorax of Drosophila melanogaster strain Oregon R assessed as median survival time of Drosophila at 0.04 to 0.2 mg/ml measured upto 72 hrs", "format": "functional", "settings": "dose 0.04-0.2 mg/ml"}, "[20]": {"test_system": "Staphylococcus aureus", "assay": "Antibacterial activity against methicillin-resistant Staphylococcus aureus SA3 assessed as absence of growth measured after 16 passages by emergence of bacterial resistance assay", "format": "functional"}},
  "note": "Active and inactive are the calls of the source. No cut-off for these calls is given here.",
  "data": [
    {"smiles": "CCCCCCCCn1c2c([n+](Cc3ccccc3)c1C)C(=O)c1ccccc1C2=O.[Br-]", "values": [
      {"measurement": "MIC", "setting": "[1]", "value": 0.19, "unit": "µg/mL"},
      {"measurement": "MIC", "setting": "[2]", "value": 6.25, "unit": "µg/mL"},
      {"measurement": "half-life at 2 µM", "setting": "[3]", "value": 32, "unit": "min"},
      {"measurement": "Activity", "setting": "[4]", "value": "inactive"},
      {"measurement": "Activity", "setting": "[5]", "value": "inactive"},
      {"measurement": "Activity", "setting": "[6]", "value": "inactive"},
      {"measurement": "Activity", "setting": "[7]", "value": "inactive"},
      {"measurement": "Activity", "setting": "[8]", "value": "inactive"},
      {"measurement": "Activity", "setting": "[9]", "value": "Active"},
      {"measurement": "Activity", "setting": "[10]", "value": "Tde"},
      {"measurement": "Activity", "setting": "[11]", "value": "Active"},
      {"measurement": "Activity", "setting": "[12]", "value": "inactive"},
      {"measurement": "Activity", "setting": "[13]", "value": "inactive"},
      {"measurement": "Activity", "setting": "[14]", "value": "Active"},
      {"measurement": "Activity", "setting": "[15]", "value": "Tde"},
      {"measurement": "Activity", "setting": "[16]", "value": "Active"},
      {"measurement": "Activity", "setting": "[17]", "value": "inactive"},
      {"measurement": "Activity", "setting": "[18]", "value": "Active"},
      {"measurement": "Time", "setting": "[19]", "value": 56, "unit": "h"},
      {"measurement": "MIC", "setting": "[20]", "value": 1.56, "unit": "µg/mL"}
    ]}
  ]
}
